Several values for one entry are separate records, joined by “and”; a condition that tells them apart may be missing. Identical values can stand only once.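 These data come from cells grown in 96-well plates and exposed to compound for 48 hours at five concentrations. GI50: concentration for 50% inhibition of growth. TGI is the concentration that stops growth completely.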 Some results are limits rather than exact numbers.

Among the test systems are SR leukemia; PC-3 prostate; OVCAR-8 ovarian; SW-620 colon; NCI-H460 lung; MALME-3M melanoma; SF-295 CNS; MDA-MB-435; SK-MEL-28 melanoma; DU-145 prostate; HOP-92 NSCLC; HCT-116 colon; NCI-H226 lung.
Holding throughout (experiment): growth of human tumour cells (NCI), 48 h

For `O=C(O)CO/N=C1/C(c2c(O)[nH]c3ccccc23)=Nc2ccccc21`, the TGI was greater than 100 µM in the test with SR leukemia; greater than 100 µM with PC-3 prostate; greater than 100 µM with OVCAR-8 ovarian; greater than 100 µM with SW-620 colon; greater than 100 µM in the test with NCI-H460 lung; 99.5 µM in the test with MALME-3M melanoma. The TGI with SF-295 CNS, in the test on MDA-MB-435, in the test on SK-MEL-28 melanoma, in the test on DU-145 prostate, in the test on HOP-92 NSCLC and with HCT-116 colon was greater than 100 µM throughout.
As to `CCCCCCC(=O)OC[n+]1cccc(-c2c(COC(=O)NC(C)C)c(COC(=O)NC(C)C)c3n2CCC3)c1`, the TGI with PC-3 prostate is greater than 100 µM; in the test with OVCAR-8 ovarian, greater than 100 µM; in the test on SW-620 colon, greater than 100 µM; in the test on NCI-H460 lung, greater than 100 µM; in the test with MALME-3M melanoma, 98.5 µM; with SF-295 CNS, greater than 100 µM. Moreover, the TGI in the test on MDA-MB-435 was greater than 100 µM; in the test with SK-MEL-28 melanoma it was greater than 100 µM; with DU-145 prostate, 98.4 µM; in the test on HOP-92 NSCLC, 66.4 µM; with NCI-H226 lung, greater than 100 µM; in the test on HCT-116 colon it was greater than 87.2 µM.
Turning to `CC(C)OP(=O)(OC(C)C)C(Nc1cccc(C(F)(F)F)c1)c1ccccc1` (centres undefined), the TGI in the test with SR leukemia, in the test with PC-3 prostate, in the test on OVCAR-8 ovarian, with NCI-H460 lung, in the test with MALME-3M melanoma and with SF-295 CNS was greater than 100 µM in each case. Moreover, the TGI in the test on MDA-MB-435, with SK-MEL-28 melanoma, with DU-145 prostate, in the test with HOP-92 NSCLC, with NCI-H226 lung and with HCT-116 colon was greater than 100 µM each time.
Regarding `Nc1cc(N)c(N=Nc2cccc3c(S(=O)(=O)O)cccc23)cc1N=Nc1cc([N+](=O)[O-])ccc1O`, the TGI in the test on SR leukemia is 72.6 µM; in the test with PC-3 prostate, greater than 100 µM; in the test with OVCAR-8 ovarian, greater than 100 µM; in the test with SW-620 colon, greater than 100 µM; in the test on NCI-H460 lung it was 74.1 µM; in the test with MALME-3M melanoma it was 64 µM. The TGI in the test on SF-295 CNS is greater than 100 µM; with MDA-MB-435, greater than 100 µM; with DU-145 prostate, greater than 100 µM; in the test with HOP-92 NSCLC, 98.7 µM; in the test with HCT-116 colon, greater than 100 µM.
In the case of `COC(=O)[C@@H]1[C@H](O)CC[C@H]2[C@@]1(C)CC[C@@H](C)[C@]2(COC(C)=O)CC(=O)c1ccoc1`, the TGI with SR leukemia, with PC-3 prostate, in the test with OVCAR-8 ovarian, in the test with SW-620 colon, with NCI-H460 lung and with SF-295 CNS was greater than 50 µM in each case. In addition, the TGI in the test on MDA-MB-435, with SK-MEL-28 melanoma, in the test on DU-145 prostate, in the test on HOP-92 NSCLC, in the test with NCI-H226 lung and with HCT-116 colon was greater than 50 µM throughout.
On to `CC(Nc1n[nH]c(=O)c2c1nnn2Cc1ccccc1)c1ccccc1` (centres undefined), for which the GI50 is > 100 µM and 48 µM in the test with SR leukemia; > 100 µM and 20.8 µM with PC-3 prostate; > 100 µM and 44.5 µM with OVCAR-8 ovarian; > 100 µM and 31 µM in the test with NCI-H460 lung; > 100 µM and 24.7 µM with MALME-3M melanoma. Moreover, the TGI in the test on SR leukemia was greater than 100 µM; in the test with PC-3 prostate, greater than 100 µM; in the test on OVCAR-8 ovarian, greater than 100 µM; with NCI-H460 lung it was greater than 100 µM; in the test with MALME-3M melanoma it was greater than 100 µM; in the test on SF-295 CNS it was > 100 µM and 61.1 µM. Also, the TGI with MDA-MB-435 is greater than 100 µM; with SK-MEL-28 melanoma, greater than 100 µM; in the test on DU-145 prostate, greater than 100 µM; in the test with HOP-92 NSCLC it was > 100 µM and 63.3 µM; with HCT-116 colon it was greater than 100 µM.
As to `N#Cc1c(N2CCOCC2)ncn(-c2ccc(Cl)cc2)c1=O`, the TGI in the test with SR leukemia, in the test on PC-3 prostate, with OVCAR-8 ovarian, in the test with SW-620 colon, in the test on NCI-H460 lung and in the test on SF-295 CNS was greater than 100 µM each time. For the same compound, the TGI with MDA-MB-435, in the test on SK-MEL-28 melanoma, with DU-145 prostate, in the test on HOP-92 NSCLC, with NCI-H226 lung and in the test on HCT-116 colon was greater than 100 µM each time.
Consider `CCOC(=O)NC(=S)NC(C)c1ccccc1` (centres undefined), for which the TGI with SR leukemia, in the test with PC-3 prostate, in the test with OVCAR-8 ovarian, in the test on SW-620 colon, in the test with MALME-3M melanoma and with SF-295 CNS was greater than 100 µM each time. The TGI in the test on MDA-MB-435, in the test on SK-MEL-28 melanoma, with DU-145 prostate, in the test on NCI-H226 lung and with HCT-116 colon was greater than 100 µM in each case.
Regarding `O=[N+]([O-])c1ccc2[nH]c(O)c(N=NC(=S)Nc3ccccc3)c2c1`, the TGI in the test with SR leukemia was greater than 100 µM; with PC-3 prostate, 20.7 µM; in the test with OVCAR-8 ovarian it was 31.8 µM; with SW-620 colon, greater than 100 µM; in the test with NCI-H460 lung it was 14.5 µM; with SF-295 CNS, 16.6 µM. Also, the TGI in the test on MDA-MB-435 is 26.9 µM; in the test with SK-MEL-28 melanoma it was 52.2 µM; with DU-145 prostate, 67.3 µM; in the test with HOP-92 NSCLC it was 21.7 µM; in the test on NCI-H226 lung it was 65.4 µM; in the test with HCT-116 colon it was 18.6 µM.
With `O=C(O)CCc1nc2cc3ccccc3cc2[nH]c1=O`, the TGI with SR leukemia, in the test on PC-3 prostate, in the test with OVCAR-8 ovarian, with SW-620 colon, in the test with NCI-H460 lung and in the test with SF-295 CNS was greater than 100 µM throughout. For the same compound, the TGI with MDA-MB-435, in the test with SK-MEL-28 melanoma, in the test with DU-145 prostate, in the test with HOP-92 NSCLC, in the test with NCI-H226 lung and in the test on HCT-116 colon was greater than 100 µM each time.
For the compound `C=CCC1C2CCC(O[Si](C(C)C)(C(C)C)C(C)C)(C(C(=O)OC)C2)C1O` (centres undefined), the TGI with SR leukemia, with PC-3 prostate, in the test with OVCAR-8 ovarian, in the test with SW-620 colon, with NCI-H460 lung and in the test on SF-295 CNS was greater than 100 µM throughout. The TGI was greater than 100 µM in the test with MDA-MB-435; greater than 100 µM in the test with SK-MEL-28 melanoma; greater than 100 µM in the test with DU-145 prostate; greater than 100 µM in the test on HOP-92 NSCLC; greater than 100 µM in the test on NCI-H226 lung; 58.2 µM with HCT-116 colon.
